Results reported in patent US20240208997A1, “CYCLIC BENZIMIDAZOLE DERIVATIVES AS CGAS INHIBITORS” (Boehringer Ingelheim International GmbH, priority 2022, published 2024).
pIC50: −log10 of the molar value.

Each compound was assayed against cGAS (Homo sapiens, UniProt Q8N884) (assay: Human cGAS enzyme assay (hcGAS IC50, in vitro), cGAMP formation by RapidFire MS). Conditions: Table 1; 45 bp dsDNA-activated enzyme.
Assay type: biochemical
Parameters: HumancGAS (amino acid 1-522) with an N-terminal 6×-His-tag and SUMO-tag; 6xHis (N); SUMO (N); made in house; host or cells: E. coli BL21(DE3) pLysS
Procedure: 6.1 Method: Human cGAS Enzyme Assay (hcGAS IC50 (In Vitro))
Human cGAS enzyme was incubated in the presence of a 45 base pair double stranded DNA to activate the enzyme and GTP and ATP as substrates. Compound activity was determined by measuring the effect of compounds on the formation of the product of the enzyme reaction, cGAMP, which is measured by a mass spectrometry method.
HumancGAS (amino acid 1-522) with an N-terminal 6×-His-tag and SUMO-tag was expressed in E. coli BL21(DE3) pLysS (Novagen) cells for 16 h at 18° C. Cells were lysed in buffer containing 25 mM Tris (pH 8), 300 mM NaCl, 10 mM imidazole, 10% glycerol, protease inhibitor cocktail (cOmplete™, EDTA-free, Roche) and DNase (5 μg/mL). […] Purified protein was concentrated to 1.7 mg/mL and stored at −80° C.
Compounds were delivered in 10 mM DMSO solution, serially diluted and transferred to the 384 well assay plate (Greiner #781201) using an Echo acoustic dispenser. Typically, 8 concentrations were used with the highest concentration at 10 μM in the final assay volume followed by ^˜1:5 dilution steps. DMSO concentration was set to 1% in the final assay volume. The 384 well assay plate contained 22 test compounds (column 1-22), and DMSO in column 23 and 24.
After the compound transfer, 15 μL of the enzyme-DNA-working solution (12 nM cGAS, 0.32 μM 45base pair DNA in assay buffer, 10 mM Tris pH 7.5/10 mM KCl/5 mM MgCl2/1 mM DTT) were added to each well from column 1-23 via a MultiDrop Combi dispenser. In column 24, 15 μl of assay buffer without enzyme/DNA were added as a low control.
The plates were then pre-incubated for 60 min at room temperature.
Following that, 10 μL of GTP (ThermoFisher #R0461)-ATP (Promega #V915B) mix in assay buffer were added to the assay plate (columns 1-24, 30 μM final concentration each) using a Multidrop Combi.
The plates were incubated again for 90 min at room temperature.
Following the incubation, the reaction was stopped by 80 μL of 0,1% formic acid in assay buffer containing 5 nM cyclic-di-GMP (Sigma #SML1228) used as internal standard for the mass spectrometry. The total volume/well was 105 μL.
The plates were centrifuged at 4000 rpm, 4° C., for 5 min.
The RapidFire autosampler was coupled to a binary pump (Agilent 1290) and a Triple Quad 6500 (ABSciex, Toronto, Canada). […] Aspiration time: 250 ms; Load time: 3000 ms; Elute time: 3000 ms; Wash volume: 500 μL.
The MS was operated in positive ion mode with HESI ion source, with a source temperature of 550 C, curtain gas=35, gas 1=65, and gas 2=80. Unit mass resolution in SRM mode. The following transitions and MS parameters (DP: declustering potential and CE: collision energy) for cGAMP and DicGMP were determined:
Internal standard: cyclic-di-GMP at 690.1/540, DP=130, CE=30.
The formation of cGAMP was monitored and evaluated as ratio to cyclic-di-GMP.
Data Evaluation and Calculation:
For data evaluation and calculation, the measurement of the low control was set as 0% control and the measurement of the high control was set as 100% control. The IC50 values were calculated using the standard 4 parameter logistic regression formula. Calculation: [y=(a−d)/(1+(x/c)^b)+d], a=low value, d=high value; x=conc M; c=1C50 M; b=slope

Chain of cGAS (Q8N884 whole entry): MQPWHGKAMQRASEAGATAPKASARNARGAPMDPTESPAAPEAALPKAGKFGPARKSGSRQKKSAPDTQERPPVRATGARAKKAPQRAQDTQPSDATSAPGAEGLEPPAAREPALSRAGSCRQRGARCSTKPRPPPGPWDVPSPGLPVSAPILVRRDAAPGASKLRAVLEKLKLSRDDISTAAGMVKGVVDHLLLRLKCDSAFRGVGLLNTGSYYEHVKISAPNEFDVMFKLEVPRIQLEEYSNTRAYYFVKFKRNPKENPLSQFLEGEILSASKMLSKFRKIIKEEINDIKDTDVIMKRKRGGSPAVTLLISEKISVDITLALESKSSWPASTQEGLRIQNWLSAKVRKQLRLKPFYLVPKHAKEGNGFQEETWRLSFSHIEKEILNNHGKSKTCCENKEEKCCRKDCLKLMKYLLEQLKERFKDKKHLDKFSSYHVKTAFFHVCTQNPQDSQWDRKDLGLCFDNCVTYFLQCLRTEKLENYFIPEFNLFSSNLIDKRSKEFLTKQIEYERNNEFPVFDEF

SMILES	pIC50
C[C@H]1CN2CC[C@@H]1n1c(nc3ccccc31)O[C@H]1C[C@@H](C(=O)O)N(C1)c1nc(nc3c1oc1ccccc13)CCOCCOC2=O (mixture of isomers) [Example 12.01]	8.05
C[C@H]1CN2CC[C@@H]1n1c(nc3ccccc31)O[C@H]1C[C@@H](C(=O)O)N(C1)c1nc(nc3c1oc1ccccc13)CCCCCCC2=O (racemic) [Example 1.24]	7.74
C[C@H]1CN2CC[C@@H]1n1c(nc3cccc(Cl)c31)O[C@H]1C[C@@H](C(=O)O)N(C1)c1nc(nc3c1oc1ccccc13)CC(=O)NCCCC2=O (racemic) [Example 2.01, (12S,14S)-4-chloro-37-methyl-29,34-dioxo-11,18-dioxa-2,9,15,26,30,35,40-heptaazaoctacyclo[33.2.2.1^12,15.1^16,27.0^2,10.0^3,8.0^17,25.0^19,24]hentetraconta-3,5,7,9,16(40),17(25),19(24),20,22,26-decaene-14-carboxylic acid]	8.22
C[C@@H]1CN2CC[C@H]1n1c(nc3cc(Cl)ccc31)O[C@H]1C[C@@H](C(=O)O)N(C1)c1nc(nc3c1oc1ccccc13)CCOCCCC2=O [Example 1.01]	7.85
C[C@H]1CN2CC[C@@H]1n1c(nc3cc(Cl)ccc31)O[C@H]1C[C@@H](C(=O)O)N(C1)c1nc(nc3c1oc1ccccc13)CCOCCCC2=O [Example 1.02]	8.55
O=C(O)[C@@H]1C[C@H]2CN1c1nc(nc3c1oc1ccccc13)CCOCCCC(=O)N1CCC(CC1)n1c(nc3cc(F)ccc31)O2 [Example 1.03]	8.25
O=C(O)[C@@H]1C[C@H]2CN1c1nc(nc3c1oc1ccccc13)CCOCCCC(=O)N1CCC(CC1)n1c(nc3ccc(F)cc31)O2 [Example 1.04]	8.35
C[C@H]1CN2CC[C@@H]1n1c(nc3ccccc31)O[C@H]1C[C@@H](C(=O)O)N(C1)c1nc(nc3c1oc1ccccc13)CCOCCCC2=O [Example 1.05]	8.74
C[C@H]1CN2CC[C@@H]1n1c(nc3ccc(Cl)cc31)O[C@H]1C[C@@H](C(=O)O)N(C1)c1nc(nc3c1oc1ccccc13)CCOCCCC2=O [Example 1.06]	8.49
C[C@H]1CN2CC[C@@H]1n1c(nc3ccccc31)O[C@H]1C[C@@H](C(=O)O)N(C1)c1nc(nc3c1oc1cc(Cl)ccc13)CCOCCCC2=O [Example 1.07]	8.42
C[C@H]1CN2CC[C@@H]1n1c(nc3cc(Cl)ccc31)O[C@H]1C[C@@H](C(=O)O)N(C1)c1nc(nc3c1oc1cc(Cl)ccc13)CCOCCCC2=O [Example 1.08]	8.35
C[C@H]1CN2CC[C@@H]1n1c(nc3cc(Cl)ccc31)O[C@H]1C[C@@H](C(=O)O)N(C1)c1nc(nc3c1oc1cc(F)ccc13)CCCCOCC2=O [Example 1.09]	8.41
C[C@H]1CN2CC[C@@H]1n1c(nc3ccc(Cl)cc31)O[C@H]1C[C@@H](C(=O)O)N(C1)c1nc(nc3c1oc1ccccc13)COCCCCC2=O [Example 1.10]	8.30
C[C@H]1CN2CC[C@@H]1n1c(nc3cc(Cl)ccc31)O[C@H]1C[C@@H](C(=O)O)N(C1)c1nc(nc3c1oc1ccccc13)COCCOCC2=O [Example 1.11]	8.72
C[C@H]1CN2CC[C@@H]1n1c(nc3cc(Cl)ccc31)O[C@H]1C[C@@H](C(=O)O)N(C1)c1nc(nc3c1oc1ccccc13)C(F)(F)CCCCCC2=O [Example 1.12]	8.28
C[C@H]1CN2CC[C@@H]1n1c(nc3ccc(Cl)cc31)O[C@H]1C[C@@H](C(=O)O)N(C1)c1nc(nc3c1oc1ccccc13)C(F)(F)CCCCCC2=O [Example 1.13]	8.21
C[C@H]1CN2CC[C@@H]1n1c(nc3ccccc31)O[C@H]1C[C@@H](C(=O)O)N(C1)c1nc(nc3c1oc1cc(F)ccc13)C(F)(F)CCCCCC2=O [Example 1.14]	8.39
C[C@H]1CN2CC[C@@H]1n1c(nc3cc(F)ccc31)O[C@H]1C[C@@H](C(=O)O)N(C1)c1nc(nc3c1oc1cc(F)ccc13)C(F)(F)CCCCCC2=O [Example 1.15]	8.46
C[C@H]1CN2CC[C@@H]1n1c(nc3ccccc31)O[C@H]1C[C@@H](C(=O)O)N(C1)c1nc(nc3c1oc1cc(Cl)ccc13)C(F)(F)CCCCCC2=O [Example 1.16]	8.48

SMILES	pIC50
C[C@H]1CN2CC[C@@H]1n1c(nc3ccccc31)O[C@H]1C[C@@H](C(=O)O)N(C1)c1nc(nc3c1oc1ccccc13)C(F)(F)CCCCC(F)(F)C2=O [Example 1.17]	8.14
C[C@H]1CN2CC[C@@H]1n1c(nc3cc(F)ccc31)O[C@H]1C[C@@H](C(=O)O)N(C1)c1nc(nc3c1oc1ccccc13)C(F)(F)CCCCC(F)(F)C2=O [Example 1.18]	8.41
C[C@H]1CN2CC[C@@H]1n1c(nc3ccccc31)O[C@H]1C[C@@H](C(=O)O)N(C1)c1nc(nc3c1oc1ccccc13)CCCCCC2=O [Example 1.19]	8.42
CC1CCc2nc(c3oc4ccccc4c3n2)N2C[C@H](C[C@H]2C(=O)O)Oc2nc3cc(Cl)ccc3n2[C@H]2CCN(C[C@@H]2C)C(=O)CCO1 (stereo partly shown) [Example 1.20]	8.31
C[C@H]1CN2CC[C@@H]1n1c(nc3cc(Cl)ccc31)O[C@H]1C[C@@H](C(=O)O)N(C1)c1nc(nc3c1oc1ccccc13)C(F)(F)CCCOCC2=O [Example 1.21]	8.48
C[C@H]1CN2CC[C@@H]1n1c(nc3ccccc31)O[C@H]1C[C@@H](C(=O)O)N(C1)c1nc(nc3c1oc1cc(Cl)ccc13)C(F)(F)CCCOCC2=O [Example 1.22]	8.57
C[C@H]1CN2CC[C@@H]1n1c(nc3ccccc31)O[C@H]1C[C@@H](C(=O)O)N(C1)c1nc(nc3c1oc1ccccc13)CCCC(C)(C)CCC2=O [Example 1.23]	7.39
C[C@H]1CCCCC(=O)N2CCC(CC2)n2c(nc3ccccc32)O[C@H]2C[C@@H](C(=O)O)N(C2)c2nc1nc1c2oc2ccccc21 [Example 1.25]	8.26
C[C@@H]1CCCCC(=O)N2CCC(CC2)n2c(nc3ccccc32)O[C@H]2C[C@@H](C(=O)O)N(C2)c2nc1nc1c2oc2ccccc21 [Example 1.26]	8.47
Cc1cccc2c1nc1n2[C@@H]2CCN(C[C@H]2C)C(=O)CCCCCC(F)(F)c2nc(c3oc4ccccc4c3n2)N2C[C@H](C[C@H]2C(=O)O)O1 [Example 1.27]	7.00
Cc1cccc2c1nc1n2[C@H]2CCN(C[C@@H]2C)C(=O)CCCCCC(F)(F)c2nc(c3oc4ccccc4c3n2)N2C[C@H](C[C@H]2C(=O)O)O1 [Example 1.28]	7.96
C[C@H]1CN2CC[C@@H]1n1c(nc3ccccc31)O[C@H]1C[C@@H](C(=O)O)N(C1)c1nc(nc3c1oc1ccccc13)C(F)(F)COCCCCC2=O [Example 3.01]	8.68
C[C@H]1CN2CC[C@@H]1n1c(nc3ccccc31)O[C@H]1C[C@@H](C(=O)O)N(C1)c1nc(nc3c1oc1ccccc13)C(F)(F)COCCCC2=O [Example 4.01]	8.77
O=C(O)[C@@H]1C[C@H]2CN1c1nc(nc3c1oc1ccccc13)COCCCCCC(=O)N1CCC(CC1)n1c(nc3cccc(F)c31)O2 [Example 5.01]	8.26
C[C@H]1CN2CC[C@@H]1n1c(nc3cc(Cl)ccc31)O[C@H]1C[C@@H](C(=O)O)N(C1)c1nc(nc3c1oc1ccccc13)C(F)(F)OCCCCC2=O [Example 6.01]	8.46
C[C@@H]1CC(=O)N2CCC(CC2)n2c(nc3ccccc32)O[C@H]2C[C@@H](C(=O)O)N(C2)c2nc(nc3c2oc2ccccc23)CCCO1 [Example 7.01]	8.06
O=C(O)[C@@H]1C[C@H]2CN1c1nc(nc3c1oc1ccccc13)COCCCC(F)(F)C(=O)N1CCC(CC1)n1c(nc3ccccc31)O2 [Example 8.01]	8.25
O=C(O)[C@@H]1C[C@H]2CN1c1nc(nc3c1oc1ccccc13)CCCOCC(=O)N1CCC(CC1)n1c(nc3ccccc31)O2 [Example 9.01]	8.12
